Results reported in patent publication US20210395210A1, “INHIBITION OF BACTERIAL CHAPERONIN SYSTEMS” (THE TRUSTEES OF INDIANA UNIVERSITY, priority 2018, published 2021).
Entries after “also recorded” stand apart in the source; their conditions may differ. Read-outs that look alike come from different tables or passages of the source.

Key:
[1] = tested on: MRSA (ATCC BAA-44); test: MRSA resistance generation, 12-day serial passage assay; format: cell-based, Staphylococcus aureus; conditions: 12 days serial passage, EC50 per passage
Experimental: To identify potential resistance toward compounds 1 and 11, a liquid culture, 12-day serial passage assay was employed as per previously reported procedures, and using the ATCC BAA-44 MRSA strain. MRSA bacteria were streaked onto a Tryptic Soy agar plate and grown overnight at 37° C. A fresh aliquot of Tryptic Soy Broth (TSB) was inoculated with a single bacterial colony and the cultures were grown overnight at 37° C. with shaking (250 rpm). The overnight culture was then sub-cultured (1:5 dilution) into a fresh aliquot of media and grown at 37° C. for 1 h with shaking, then diluted into fresh media to achieve a final OD600 reading of 0.01. Aliquots of the diluted culture (200 μL) were dispensed to 96 well plates along with addition of 2 μL of test compounds in DMSO (1, 11, vancomycin, and a previously-reported GroEUES inhibitor, “28R”). The inhibitor concentration range during the resistance assay was 100 μM to 48.8 nM (2-fold dilution series). Plates were sealed with “Breathe Easy” oxygen permeable membranes (Diversified Biotech) and left to incubate at 37° C. without shaking (stagnant assay). OD600 readings were taken at the 24 h time point to monitor for bacterial growth. A second set of baseline control plates were prepared analogously, without any bacteria added, to correct for possible compound absorbance and/or precipitation, as well as plate and media baseline effects. […]

[2] = tested on: S. aureus Rosenbach (ATCC 25923) in established biofilms; test: S. aureus biofilm penetration and bactericidal activity assay; format: cell-based, Staphylococcus aureus; conditions: read-out: S. aureus Proliferation & Biofilm Assay EC50 Killing Bacteria in Biofilms
Experimental: The biofilm penetration and bactericidal activity assay was carried out with S. aureus Rosenbach (ATCC 25923) as described previously by Kwasny et al. S. aureus bacteria were streaked onto a Tryptic Soy Broth (TSB) agar plate and grown overnight at 37° C. A fresh aliquot of TSB media was inoculated with a single bacterial colony and the cultures were grown overnight at 37° C. with shaking (250 rpm). The overnight culture was then sub-cultured (1:5 dilution) into a fresh aliquot of TSB media supplemented with 0.5% glucose and grown at 37° C. for 1 h with shaking, then diluted into fresh TSB media supplemented with 0.5% glucose to achieve a final OD600 reading of 0.01. Aliquots of the diluted culture (100 μL) were dispensed to 96 well polystyrene plates without any compounds added. A second set of control plates were prepared analogously, but without any bacteria added. Plates were sealed with “Breathe Easy” oxygen permeable membranes (Diversified Biotech) and left to incubate at 37° C. without shaking (stagnant assay) until biofilm was formed. After 24 h, the planktonic cultures (or media blanks in the control plates) were removed and the plates were washed gently 3 times with 200 μL of sterile phosphate buffered saline (PBS). Then, 100 μL aliquots of fresh TSB media were dispensed to the plates along with addition of 1 μL of test compounds in DMSO. The inhibitor concentration range during the assay was 100 μM to 46 nM (3-fold dilution series). The plates were sealed with “Breathe Easy” membranes and incubated at 37° C. without shaking to allow compounds to penetrate and kill bacteria in the biofilms. After 24 h, the cultures were removed and plates were washed again gently 3 times with 200 μL of sterile PBS. The remaining bacteria in the biofilms were allowed to recover by adding 100 μL of fresh TSB media per well and incubating for 24 h at 37° C. At the end of this final incubation, bacterial growth was monitored by measuring the OD600 nm using a Molecular Devices SpectraMax Plus384 microplate reader. […] Results presented represent the averages of EC50 values obtained from at least triplicate experiments.
Next, we evaluated whether or not compounds would be bactericidal to S. aureus that were within already established biofilms. In this assay, we first grew S. aureus bacteria for 24 h in the absence of test compounds so that they could establish biofilms in the wells. After 24 h, the cultures were removed, the wells were washed gently, and fresh media was added along with test compounds or vancomycin. […] Fresh media was then added and the cultures were incubated for another 24 h to allow any viable bacteria remaining in the biofilms to emerge and grow planktonically again.

[3] = Staphylococcus aureus, ATCC25923, 24 h

SMILES | ability of MRSA to generate resistance (in words) [1] | EC50 [2, 3] [nM] | other results
O=C(Nc1ccc(Sc2nc3ccccc3s2)c(Cl)c1)c1cc(Br)cc(Br)c1O [Compound 1, N-(4-(Benzo[d]thiazol-2-ylthio)-3-chlorophenyl)-3,5-dibromo-2-hydroxybenzamide] | not able to easily generate resistance; also recorded: retained sensitivity | 2400 | 
O=C(Nc1cccc(Cl)c1)c1cc(Br)ccc1O [Compound 11, 5-Bromo-N-(3-chlorophenyl)-2-hydroxybenzamide] | not able to easily generate resistance; also recorded: retained sensitivity | 6900 | 
O=C(Nc1ccc(Sc2nc3ccccc3s2)c(Cl)c1)c1cccc(Br)c1O [Compound 2, N-(4-(Benzo[d]thiazol-2-ylthio)-3-chlorophenyl)-3-bromo-2-hydroxybenzamide] |  | 5600 | 
CN[C@H](CC(C)C)C(=O)N[C@H]1C(=O)N[C@@H](CC(N)=O)C(=O)N[C@H]2C(=O)N[C@H]3C(=O)N[C@H](C(=O)N[C@H](C(=O)O)c4cc(O)cc(O)c4-c4cc3ccc4O)[C@H](O)c3ccc(c(Cl)c3)Oc3cc2cc(c3O[C@@H]2O[C@H](CO)[C@@H](O)[C@H](O)[C@H]2O[C@H]2C[C@](C)(N)[C@H](O)[C@H](C)O2)Oc2ccc(cc2Cl)[C@H]1O [Vancomycin, vancomycin, reference compound] |  |  | EC50 ([2]; established 24 h biofilm, 24 h with compound, 24 h recovery, OD600): > 100000 nM
O=C(Nc1ccc(Sc2nc3ccccc3s2)cc1)c1cc(Br)cc(Br)c1O [Compound 5, N-(4-(Benzo[d]thiazol-2-ylthio)phenyl)-3,5-dibromo-2-hydroxybenzamide] |  | 2300 | 
O=C(Nc1ccc(Sc2nc3ccccc3s2)cc1)c1ccccc1O [Compound 8, N-(4-(Benzo[d]thiazol-2-ylthio)phenyl)-2-hydroxybenzamide] |  |  | EC50 ([2]; Staphylococcus aureus, ATCC25923, established 24 h biofilm, 24 h with compound, 24 h recovery, OD600): 2000 nM
